What was measured:
Type in all cases: functional
Hepatocyte [1] = assay: Inhibition of D-galactosamine/TNFalpha-induced cell death in ddY mouse hepatocytes at 1 uM after 20 hrs by MTT assay
Hepatocyte [2] = assay: Inhibition of D-galactosamine/TNFalpha-induced cell death in ddY mouse hepatocytes at 10 uM after 20 hrs by MTT assay
Hepatocyte [3] = assay: Inhibition of D-galactosamine/TNFalpha-induced cell death in ddY mouse hepatocytes at 30 uM after 20 hrs by MTT assay
Hepatocyte [4] = assay: Inhibition of D-galactosamine/TNFalpha-induced cell death in ddY mouse hepatocytes at 3 uM after 20 hrs by MTT assay
Hepatocyte [5] = assay: Inhibition of D-galactosamine/TNFalpha-induced cell death in ddY mouse hepatocytes assessed as cell viability at 10 uM after 20 hrs by MTT assay; conditions: read-out: Activity
Hepatocyte [6] = assay: Inhibition of D-galactosamine/TNFalpha-induced cell death in ddY mouse hepatocytes assessed as cell viability at 30 uM after 20 hrs by MTT assay; conditions: read-out: Activity
L929 [7] = assay: Inhibition of TNF-alpha-induced cell death in […] assessed as cell viability at 10 uM after 20 hrs by MTT assay; conditions: L929, 20 h, read-out: Activity
Mus musculus [8] = assay: Inhibition of D-galactosamine/LPS-induced liver injury in ddY mouse assessed as serum GPT level at 2.5 mg/kg, po
L929 [9] = assay: Inhibition of TNF-alpha-induced cell death in […] assessed as cell viability at 30 uM after 20 hrs by MTT assay; conditions: L929, 20 h, read-out: Activity
Hepatocyte [10] = assay: Inhibition of D-galactosamine-induced cell death in ddY mouse hepatocytes assessed as cell viability at 30 uM after 44 hrs by MTT assay; conditions: read-out: Activity
Mus musculus [11] = assay: Inhibition of D-galactosamine/LPS-induced TNFalpha level in ddY mouse serum at 20 mg/kg, po by ELISA
Hepatocyte [12] = assay: Inhibition of D-galactosamine/TNFalpha-induced cell death in ddY mouse hepatocytes assessed as cell viability at 100 uM after 20 hrs by MTT assay; conditions: read-out: Activity
Mus musculus [13] = assay: Inhibition of D-galactosamine/LPS-induced liver injury in ddY mouse assessed as serum GOT level at 10 mg/kg, po
Hepatocyte [14] = assay: Inhibition of D-galactosamine-induced cell death in ddY mouse hepatocytes assessed as cell viability at 100 uM after 44 hrs by MTT assay; conditions: read-out: Activity
Mus musculus [15] = assay: Inhibition of D-galactosamine/LPS-induced liver injury in ddY mouse assessed as serum GPT level at 5 mg/kg, po
Mus musculus [16] = assay: Inhibition of D-galactosamine/LPS-induced TNFalpha level in ddY mouse serum at 10 mg/kg, po by ELISA
L929 [17] = assay: Inhibition of TNF-alpha-induced cell death in […] assessed as cell viability at 100 uM after 20 hrs by MTT assay; conditions: L929, 20 h, read-out: Activity
Hepatocyte [18] = assay: Inhibition of D-galactosamine-induced cell death in ddY mouse hepatocytes assessed as cell viability at 10 uM after 44 hrs by MTT assay; conditions: read-out: Activity
Mus musculus [19] = assay: Inhibition of D-galactosamine/LPS-induced TNFalpha level in ddY mouse serum at 5 mg/kg, po by ELISA
Mus musculus [20] = assay: Inhibition of D-galactosamine/LPS-induced liver injury in ddY mouse assessed as serum GOT level at 2.5 mg/kg, po
Mus musculus [21] = assay: Inhibition of D-galactosamine/LPS-induced liver injury in ddY mouse assessed as serum GOT level at 5 mg/kg, po
Mus musculus [22] = assay: Inhibition of D-galactosamine/LPS-induced liver injury in ddY mouse assessed as serum GPT level at 10 mg/kg, po

O=C(/C=C/C=C/CCCC/C=C/c1ccc2c(c1)OCO2)N1CCCCC1 [PIPERUNDECALIDIENE] showed an inhibition at 1 µM (Hepatocyte [1]) of 27%, an inhibition at 10 µM (Hepatocyte [2]) of 49% and an inhibition at 30 µM (Hepatocyte [3]) of 58%. The inhibition at 3 µM (Hepatocyte [4]) was 40%.

O=C(/C=C/CCCCCC/C=C/c1ccc2c(c1)OCO2)N1CCCCC1 [PIPERCHABAMIDE B] showed an inhibition at 10 µM (Hepatocyte [2]) of 74%, an inhibition at 30 µM (Hepatocyte [3]) of 78% and an inhibition at 3 µM (Hepatocyte [4]) of 63%.

Work on CC(C)CNC(=O)/C=C/C=C/CCCCCC/C=C/c1ccc2c(c1)OCO2 [GUINEENSINE] yielded an inhibition at 10 µM (Hepatocyte [2]) of 33%, an inhibition at 30 µM (Hepatocyte [3]) of 12% and an inhibition at 3 µM (Hepatocyte [4]) of 26%.

With CCC(C)CNC(=O)/C=C/C=C/c1ccc2c(c1)OCO2 (stereo not given) [PIPERCHABAMIDE E] the inhibition at 10 µM (Hepatocyte [2]) was 71%, the inhibition at 30 µM (Hepatocyte [3]) was 98% and the inhibition at 3 µM (Hepatocyte [4]) was 34%.

CC(C)CNC(=O)/C=C/C=C/CC/C=C/c1ccc2c(c1)OCO2 [RETROFRACTAMIDE A] gave an inhibition at 1 µM (Hepatocyte [1]) of 40%, an inhibition at 10 µM (Hepatocyte [2]) of 35% and an inhibition at 30 µM (Hepatocyte [3]) of 60%. The inhibition at 3 µM (Hepatocyte [4]) was 32%.

Molecule CCCCC/C=C/C=C/C(=O)NCC(C)C [PELLITORIN] has an inhibition at 10 µM (Hepatocyte [2]) of 25%, an inhibition at 30 µM (Hepatocyte [3]) of 42% and an inhibition at 3 µM (Hepatocyte [4]) of 19%.

With CC(C)CNC(=O)/C=C/C=C/c1ccc2c(c1)OCO2 [PIPERLONGUMININE] the inhibition at 1 µM (Hepatocyte [1]) was 27%, the inhibition at 10 µM (Hepatocyte [2]) was 54% and the inhibition at 30 µM (Hepatocyte [3]) was 66%. It also gave an inhibition at 3 µM (Hepatocyte [4]) of 50%.

In the case of O=C(/C=C/C=C/CCCCCC/C=C/c1ccc2c(c1)OCO2)N1CCCCC1 [PIPERCHABAMIDE C], the inhibition at 10 µM (Hepatocyte [2]) is reported as 52%, the inhibition at 30 µM (Hepatocyte [3]) is reported as 68% and the inhibition at 3 µM (Hepatocyte [4]) is reported as 42%.

For CC(C)CNC(=O)/C=C/C=C/CCCCCCCC/C=C/c1ccc2c(c1)OCO2 [BRACHYSTAMIDE B], the inhibition at 10 µM (Hepatocyte [2]) was 11%, the inhibition at 30 µM (Hepatocyte [3]) was -6% and the inhibition at 3 µM (Hepatocyte [4]) was 22%.

With CC(C)CNC(=O)/C=C/CCCC/C=C/c1ccc2c(c1)OCO2 [RETROFRACTAMIDE C] the inhibition at 1 µM (Hepatocyte [1]) was 30%, the inhibition at 10 µM (Hepatocyte [2]) was 31% and the inhibition at 30 µM (Hepatocyte [3]) was 37%. The inhibition at 3 µM (Hepatocyte [4]) was 51%.

In the case of COC(=O)/C=C/C=C/c1ccc2c(c1)OCO2 [METHYL PIPERATE], the inhibition at 10 µM (Hepatocyte [2]) is reported as 29%, the inhibition at 30 µM (Hepatocyte [3]) is reported as 21% and the inhibition at 3 µM (Hepatocyte [4]) is reported as 18%.

O=C(/C=C/C=C/c1ccc2c(c1)OCO2)N1CCCCC1 [PIPERINE] was tested, and the viability at 10 µM (Hepatocyte [5]) was 72.4%, the viability at 30 µM (Hepatocyte [6]) was 76.1% and the viability at 10 µM (L929 [7]) was 64%. The inhibition in vivo at 2.5 mg/kg (Mus musculus [8]) was 23.2%, the viability at 30 µM (L929 [9]) was 66.2% and the viability at 30 µM (Hepatocyte [10]) was 36.5%. The inhibition in vivo at 20 mg/kg (Mus musculus [11]) was -2.2%, the viability at 100 µM (Hepatocyte [12]) was 84.3% and the inhibition in vivo at 10 mg/kg (Mus musculus [13]) was 96.1%. It also gave a viability at 100 µM (Hepatocyte [14]) of 29.2%, an inhibition in vivo at 5 mg/kg (Mus musculus [15]) of 51.1% and an inhibition at 10 µM (Hepatocyte [2]) of 46%. It also gave an inhibition in vivo at 10 mg/kg (Mus musculus [16]) of 9.2%, a viability at 100 µM (L929 [17]) of 92.2% and an inhibition at 30 µM (Hepatocyte [3]) of 68%. For the same molecule, the viability at 10 µM (Hepatocyte [18]) was 40.6%, the inhibition in vivo at 5 mg/kg (Mus musculus [19]) was 15.7% and the inhibition at 3 µM (Hepatocyte [4]) was 23%. It also gave an inhibition in vivo at 2.5 mg/kg (Mus musculus [20]) of 0.3%, an inhibition in vivo at 5 mg/kg (Mus musculus [21]) of 50.7% and an inhibition in vivo at 10 mg/kg (Mus musculus [22]) of 94.3%.

For O=C(/C=C/CCc1ccc2c(c1)OCO2)N1CCCCC1 [PIPERANINE], the inhibition at 10 µM (Hepatocyte [2]) was 50%, the inhibition at 30 µM (Hepatocyte [3]) was 53% and the inhibition at 3 µM (Hepatocyte [4]) was 31%.

For CC(C)CNC(=O)/C=C/CCc1ccc2c(c1)OCO2 [4,5-DIHYDROPIPERLONGUMININE], the inhibition at 1 µM (Hepatocyte [1]) was 34%, the inhibition at 10 µM (Hepatocyte [2]) was 43% and the inhibition at 30 µM (Hepatocyte [3]) was 66%. It also gave an inhibition at 3 µM (Hepatocyte [4]) of 43%.

Molecule CCCCCCC/C=C/C=C/C(=O)NCC(C)C has an inhibition at 1 µM (Hepatocyte [1]) of 12%, an inhibition at 10 µM (Hepatocyte [2]) of 31% and an inhibition at 30 µM (Hepatocyte [3]) of 44%. The inhibition at 3 µM (Hepatocyte [4]) was 21%.

Molecule O=C1C=CCCN1C(=O)CCc1ccccc1 [PIPERCHABAMIDE A] has an inhibition at 10 µM (Hepatocyte [2]) of 32%, an inhibition at 30 µM (Hepatocyte [3]) of 70% and an inhibition at 3 µM (Hepatocyte [4]) of 29%.

Molecule O=C(CCCCCC/C=C/c1ccc2c(c1)OCO2)N1CCCCC1 [PIPERROLEIN B] has an inhibition at 1 µM (Hepatocyte [1]) of 20%, an inhibition at 10 µM (Hepatocyte [2]) of 33% and an inhibition at 30 µM (Hepatocyte [3]) of 64%. For the same molecule, the inhibition at 3 µM (Hepatocyte [4]) was 29%.

O=C(/C=C/CCCC/C=C/c1ccc2c(c1)OCO2)N1CCCCC1 [PIPERNONALINE] gave an inhibition at 10 µM (Hepatocyte [2]) of 31%, an inhibition at 30 µM (Hepatocyte [3]) of 48% and an inhibition at 3 µM (Hepatocyte [4]) of 17%.

O=Cc1ccc2c(c1)OCO2 [PIPERONAL] gave an inhibition at 10 µM (Hepatocyte [2]) of 23%, an inhibition at 30 µM (Hepatocyte [3]) of 39% and an inhibition at 3 µM (Hepatocyte [4]) of 20%.

Work on C[C@]12CCC(=O)C=C1CC[C@@H]1[C@@H]2[C@@H](O)C[C@@]2(C)[C@H]1CC[C@]2(O)C(=O)CO [HYDROCORTISONE] yielded an inhibition in vivo at 10 mg/kg (Mus musculus [13]) of 94.2%, an inhibition in vivo at 10 mg/kg (Mus musculus [16]) of 92.1% and an inhibition in vivo at 10 mg/kg (Mus musculus [22]) of 97.7%.

Molecule CCCCC/C=C\CCCCCCCC/C=C/C=C/C(=O)NCC(C)C has an inhibition at 1 µM (Hepatocyte [1]) of 10%, an inhibition at 10 µM (Hepatocyte [2]) of 19% and an inhibition at 30 µM (Hepatocyte [3]) of 27%. For the same molecule, the inhibition at 3 µM (Hepatocyte [4]) was 3%.

For CCCCCCCCCCCCC/C=C/C=C/C(=O)NCC(C)C, the inhibition at 1 µM (Hepatocyte [1]) was 15%, the inhibition at 10 µM (Hepatocyte [2]) was 41% and the inhibition at 30 µM (Hepatocyte [3]) was 43%. The inhibition at 3 µM (Hepatocyte [4]) was 37%.

CC(C)CNC(=O)/C=C/CCCCCC/C=C/c1ccc2c(c1)OCO2 [PIPERCHABAMIDE D] was tested, and the inhibition at 10 µM (Hepatocyte [2]) was 77%, the inhibition at 30 µM (Hepatocyte [3]) was 37% and the inhibition at 3 µM (Hepatocyte [4]) was 57%.

In the case of CC(C)CNC(=O)/C=C/C=C/CCCC/C=C/c1ccc2c(c1)OCO2 [RETROFRACTAMIDE B], the inhibition at 1 µM (Hepatocyte [1]) is reported as 32%, the inhibition at 10 µM (Hepatocyte [2]) is reported as 51% and the inhibition at 30 µM (Hepatocyte [3]) is reported as 26%. The inhibition at 3 µM (Hepatocyte [4]) was 54%.

From ChEMBL document CHEMBL1141654, “Protective effects of amide constituents from the fruit of Piper chaba on D-galactosamine/TNF-alpha-induced cell death in mouse hepatocytes” (2008)
